Results as given in patent US9688653B2, “Ethoxyphenyl thienyl compounds and methods for the treatment of bacterial infections” (Duke University, priority 2013, dated 2017).

Assays:
[1] = test system: Bladder carcinoma 5637 cells; assay: Cytotoxicity counterscreen, CellTiter Glo, 72 hr; assay type: cell-based, human
Procedure: B. Counterscreen: Cytotoxicity Screening for Potential Inhibitors of Bacterial Capsule Biogenesis.
Purpose: This cell-based assay measures the cytotoxicity of compounds in bladder carcinoma 5637 cells using luminescent cell viability assay readout.
Cytotoxicity assay: The cytotoxicity assay was performed as described in Section 6: Appendix. Hit cytotoxicity and the 50% toxic concentration (CC50) was determined and compared to the IC50 to calculate the selectivity index.
Assay Description: Cytotoxicity: Dose response testing (dose range=300-0.58 μM) established the hit cytotoxicity data. Compounds were plated in 384-well microplates in a stacked dose response format using the same doses used in the efficacy dose response. Bladder carcinoma 5637 cells were added to the compounds, and 72 hr later cell viability was measured using CellTiter Glo (38). Hit cytotoxicity and the 50% toxic concentration (TC50) was determined and compared to the IC50 to calculate the therapeutic index. Test compounds are serially diluted in a plate to plate matrix or stacked plate matrix. All 320 compounds in a source plate are diluted together resulting in a 10 point dose response dilution series. It is visualized as a serial dilution series proceeding vertically through a stack of plates with the high dose plate on top and the low dose plate on the bottom.
Control Drug: Hyamine was used as a positive cytotoxic control. All wells contained 0.5% DMSO.
Preparation of Bladder carcinoma 5637 cells: Cells are harvested and resuspended to 80,000 cells per ml in Complete DMEM/F12®.
Endpoint Read: Following the three day incubation period, the assay plates were equilibrated to room temperature for 30 min and an equal volume (30 μL) of Cell Titer-Glo® reagent (Promega Inc.) is added to each well using a WellMate™ (Matrix, Hudson, N.H.) and plates are incubated for an additional 10 min at room temperature. At the end of the incubation, luminescence is measured using a Perkin Elmer Envision™ multi-label reader (PerkinElmer, Wellesley, Mass.) with an integration time of 0.1 s.
Cytotoxicity. Testing was performed essentially as previously described. Concentration-response testing was performed over a range 0.58-300 μM in a […] well plate format. Bladder carcinoma 5637 cells (ATCC HTB-9) were added to the compounds, and 72 hrs later cell viability was measured using CellTiter Glo (Promega). The 50% toxic concentration (TC50) was determined and compared to the IC50 to calculate the therapeutic index. Hyamine was used as a positive cytotoxic control. All wells contained 0.5% DMSO.

E. coli K1 strain UTI89 [2] = assay: Secondary assay 2: T7 phage-mediated lysis assay; assay type: cell-based, Escherichia coli; details: read-out: T7 phage IC50
Excerpt: D. Secondary Assay 2: Screening for Inhibitors of Bacterial Capsule Biogenesis—T7 Lysis Inhibition
Purpose: This secondary assay measures the compound mechanistic specificity for inhibition of bacterial capsule formation and excludes inhibitors of phage replication using a different bacteriophage (T7). In this assay, an increase in phage-induced lysis correlates to a decrease in capsule formation.
Purpose: This secondary assay measures the compound mechanistic specificity for inhibition of bacterial capsule formation using a different bacterial phage (T7). In this assay, an increase in phage-induced lysis correlates to a decrease in capsule formation.
Assay Description: T7 phage-mediated lysis assay: This assay determined if the mechanism of action of the compound is inhibition of phage infectivity or replication. The T7 phage has a nearly identical genome to K1F, without encoding an endosialidase. Its cycle of replication is similar to that of K1F as well. However, T7 entry into E. coli is inhibited by K capsules. This secondary assay was conducted in the 96 well plate format. […] Compounds were added in quadruplicate to plates in a concentration dependent manner in the range of 100-0.39 μM, followed by addition of 100 μL of bacterial culture. 1% DMSO (final well concentration) was included. The plates were tape sealed and shaken vigorously for 1.5 hr. An initial OD600 reading was measured to identify compounds that cause growth retardation or bacterial killing in the absence of phage. Next, T7 phage (5 μL) was added to all of the test wells. The plates were resealed and shaken vigorously at 37° C., and measurements of OD600 for phage-mediated lysis were taken after 3 hr. True inhibitors of capsule yielded bacteria that were susceptible to T7 phage and lysed within 2 hr of the addition of phage. […] The positive control drug C7 (100 μM final well concentration) was used in this screen.
T7 phage counter assay. This secondary assay was performed as previously described and was used to distinguish compounds with phage inhibitory effects from true polysaccharide capsule inhibitors. […] Thus, the presence of a capsule inhibits T7-mediated lysis. In this assay, an increase in phage-induced lysis correlates to a decrease in capsule formation. True inhibitors of capsule yielded bacteria that were susceptible to T7 phage and lysed within 2 hr of the addition of phage. […] The positive control molecule C7 (100 μM final well concentration) was used in this screen.

E. coli K1 strain UTI89 [3] = assay: microbe, parasite or virus in culture
Excerpt: The ability of the […] to bind to bacterial capsule, infect, and lyse E. coli UT189 was used as the primary assay to identify the effects of screened compounds on bacterial capsule formation. The phenotypic end-point assay measured the fluorescence generated by cellular processing of Alamar Blue as a direct indicator of cell viability. A total of […] compounds were screened using the primary assay. […] Hits were further evaluated using […] secondary assays for alternative measurement of compound-induced reduction in bacterial capsule formation (secondary assays 1 and 2) and specificity (secondary assays 3 and 4). Confirmed actives with an SI>5 were further investigated and subjected to chemical optimization, followed by secondary assay evaluation. Secondary assays more closely characterized the ability of the compounds to reduce bacterial capsule formation and can be used to examine the mechanism of action of the compounds. The combination of primary assay (to measure capsule reduction), counter assay (for general eukaryotic cell toxicity) and secondary assay (to measure reduction in capsule formation and specificity) were combined to allow a determination of probe efficacy, selectivity, and specificity.
A. Primary Assay: Screening for Inhibitors of Bacterial Capsule Biogenesis.
Primary assay: An end-point assay to measure the amount of K1 phage-induced bacterial cell lysis was employed to determine the compound effect on capsule biogenesis. K1 bacteriophage specifically binds the bacterial capsule during the initial stages of infection. Bacteria without capsule cannot be infected and lysed by the bacteriophage. […] A total of 338,740 compounds were screened at 100 μM in the primary screen Inhibition of phage lysis was calculated relative to the mean of the bacterial (positive) control on each microtiter plate. […] For calculation of S/B/Z value, and CV, the following formulae (in which SD stands for standard deviation) were used: S/B=mean signal/mean background; Z=1-3SD of sample+3SD of control mean of sample−mean of control; % CV=(SD mean signal/mean signal)×100.
IC50 values were calculated using a 4 parameter Levenburg-Marquardt algorithm, with the maximum and minimum locked at 0 and 100 respectively.
Primary assay: The primary assay was conducted in the 1,536 well plate format. Bacterial cultures of E. coli K1 strain UTI89 (cystitis isolate) and isogenic capsule mutant strains (as controls for phage infection) were grown and prepared at the screening center immediately prior to use. Overnight starting cultures of UTI89 were grown at 37° C., and inoculated into 1 liter of LB (starting OD600˜0.03), which was sufficient for screening 40 plates (including ˜10% waste) and ˜40,000 compounds as single points.
Control wells contained UTI89 (wt K1) with 0.5% DMSO as a simulated positive control; UTI89 with 0.5% DMSO and tetracycline for a negative growth control; and media plus vehicle control. 50 mL of LB Broth was inoculated with stock 150 μL E. coli UT189 and grown overnight at 37° C. The next day, cultures were diluted 1:75 in 1 L of LB Broth containing 0.5% DMSO. 3 μL of this culture was added to each plate well, and plates were incubated, inverted, at 37° C. for 2 hr. The K1F bacteriophage stock was diluted 1:8 in LB Broth containing 0.5% DMSO, and 1.5 μL of diluted phage (or media only) was added to the pre-plated test compound wells and appropriate control wells. The plates were centrifuged briefly, and then were incubated, inverted, at 37° C. for an additional 2 hr. Afterward, Alamar Blue reagent (Invitrogen, #DAL1100) was diluted 1:2 with LB broth and 1 μL was added to each plate well.

[4] = first round of synthetic analogues, n = 2
[5] = read-out: K1 phage IC50, first round of synthetic analogues, n = 3
[6] = purchased analogue series, n = 2
[7] = read-out: K1 phage IC50, purchased analogue series, n = 3
[8] = second round of synthetic analogues, n = 2
[9] = read-out: K1 phage IC50, second round of synthetic analogues, n = 3
[10] = read-out: K1 phage IC50 (inhibition of K1 capsule formation)

Compound | IC50 [1] [µM] | IC50 (E. coli K1 strain UTI89 [2]; [4]) [µM] | IC50 (E. coli K1 strain UTI89 [3]; [5]) [µM] | other results
O=C(O)c1sc(-c2ccc(C(F)(F)F)cc2)cc1NC(=O)c1c(F)cccc1F [compound 53470440] | 44.8 | 3.8 | 23.7 | 
O=C(Nc1cc(-c2ccc(C(F)(F)F)cc2)sc1C(=O)O)c1ccc(Br)o1 [compound 53470416] | 47.5 | 2.59 | 12.3 | 
CC(C)c1ccc(-c2cc(NC(=O)c3c(F)cccc3F)c(C(=O)O)s2)cc1 [compound 53470439] | 32.4 | 1.27 | 7.09 | 
Cc1ccc(C(=O)Nc2cc(-c3ccccc3)sc2C(=O)O)s1 [compound 17546665] | 63.6 |  |  | IC50 (E. coli K1 strain UTI89 [2]; [6]): 29.7 µM; IC50 (E. coli K1 strain UTI89 [3]; [7]): > 100 µM
CCCc1ccc(-c2cc(NC(=O)c3c(F)cccc3F)c(C(=O)O)s2)cc1 [compound 56643016] | 54.9 |  |  | IC50 (E. coli K1 strain UTI89 [2]; [8]): < 0.625 µM; IC50 (E. coli K1 strain UTI89 [3]; [9]): 2.63 µM
O=C(Nc1cc(-c2ccccc2)sc1C(=O)O)c1cc2ccccc2o1 [compound 17548073] | 167 |  |  | IC50 (E. coli K1 strain UTI89 [2]; [6]): 6.7 µM; IC50 (E. coli K1 strain UTI89 [3]; [7]): > 100 µM
CC(C)c1ccc(-c2cc(NC(=O)c3ccc(Br)s3)c(C(=O)O)s2)cc1 [compound 53470432] | 33.1 | 2.75 | > 100 | 
O=C(Nc1cc(-c2ccc(C(F)(F)F)cc2)sc1C(=O)O)c1cccc(F)c1 [compound 53470418] | 35.1 | 12.8 | > 100 | 
COc1ccc(-c2cc(NC(=O)c3cccc(F)c3)c(C(=O)O)s2)cc1 [compound 53470445] | 44.8 | 8.36 | > 100 | 
CCOc1ccc(-c2cc(NC(=O)c3c(F)cccc3C(F)(F)F)c(C(=O)O)s2)cc1 [compound 56643017] | 62 |  |  | IC50 (E. coli K1 strain UTI89 [2]; [8]): < 5 µM; IC50 (E. coli K1 strain UTI89 [3]; [9]): 52.6 µM
CCOc1ccc(-c2cc(NC(=O)c3cccc(F)c3)c(C(=O)O)s2)cc1 [compound 23602076] | 61.3 | 2.61 | 14.7 | 
O=C(Nc1cc(-c2ccc(OC(F)(F)F)cc2)sc1C(=O)O)c1cc2ccccc2o1 [compound 53495058] | 40.6 | 3.83 | > 100 | 
CCCc1ccc(-c2cc(NC(=O)c3c(F)cc(F)cc3F)c(C(=O)O)s2)cc1 [compound 56643011] | 69.9 |  |  | IC50 (E. coli K1 strain UTI89 [2]; [8]): 2.5 to 5 µM; IC50 (E. coli K1 strain UTI89 [3]; [9]): 15.9 µM
Cc1ccc(-c2cc(NC(=O)c3cc4ccccc4o3)c(C(=O)O)s2)cc1 [compound 53470436] | 94.6 | 20 | > 100 | 
O=C(O)c1sc(-c2ccc(OC(F)(F)F)cc2)cc1NC(=O)c1c(F)cccc1F [compound 53495055] | 51 | 1.35 | 13 | 
Cc1ccc(-c2cc(NC(=O)c3c(F)cccc3F)c(C(=O)O)s2)cc1 [compound 53470422] | 57.3 | 2.43 | 40.3 | 
CCCc1ccc(-c2cc(NC(=O)c3ccc(Br)o3)c(C(=O)O)s2)cc1 [compound 56643013] | 46.4 |  |  | IC50 (E. coli K1 strain UTI89 [2]; [8]): < 0.625 µM; IC50 (E. coli K1 strain UTI89 [3]; [9]): 1.43 µM
CCCCOc1ccc(-c2cc(NC(=O)c3ccc(Br)o3)c(C(=O)O)s2)cc1 [CID 56643021] | 43.4 |  |  | IC50 (E. coli K1 strain UTI89 [2]; [8]): < 0.625 µM; IC50 (E. coli K1 strain UTI89 [3]; [10]): 0.85 µM
O=C(O)c1sc(-c2ccc(OCCC(F)(F)F)cc2)cc1NC(=O)c1c(F)cc(F)cc1F [compound 56643010] | 63.6 |  |  | IC50 (E. coli K1 strain UTI89 [2]; [8]): < 0.625 µM; IC50 (E. coli K1 strain UTI89 [3]; [9]): 3.11 µM
O=C(O)c1sc(-c2ccccc2)cc1NC(=O)C1CCCCC1 [compound 16393057] | 115 |  |  | IC50 (E. coli K1 strain UTI89 [2]; [6]): 65.2 µM; IC50 (E. coli K1 strain UTI89 [3]; [7]): > 100 µM
Cc1ccc(-c2cc(NC(=O)c3ccc(Br)o3)c(C(=O)O)s2)cc1 [compound 53470423] | 50.7 | 1.01 | 15.7 | 
O=C(O)c1sc(-c2ccc(OCCC(F)(F)F)cc2)cc1NC(=O)c1c(F)cccc1F [CID 56643020] |  |  |  | Cytotoxicity CC50 / TC50 / IC50 ([1]; bladder carcinoma 5637 cells): 68.41 µM; IC50 (E. coli K1 strain UTI89 [2]): < 0.156 µM; IC50 (E. coli K1 strain UTI89 [3]; [10]): 0.84 µM
COc1ccc(-c2cc(NC(=O)c3cc4ccccc4o3)c(C(=O)O)s2)cc1 [compound 53470443] | 44.8 | 8.36 | > 100 | 
CCOc1ccc(-c2cc(NC(=O)c3ccc(OC)c(OC)c3)c(C(=O)O)s2)cc1 [compound 23602082] | 72.3 |  |  | IC50 (E. coli K1 strain UTI89 [2]; [6]): 8 µM; IC50 (E. coli K1 strain UTI89 [3]; [7]): 57.9 µM
O=C(O)c1sc(-c2ccc(OCCCC(F)(F)F)cc2)cc1NC(=O)c1c(F)cc(F)cc1F [compound 56643015] | 54.7 |  |  | IC50 (E. coli K1 strain UTI89 [2]; [8]): < 1.25 µM; IC50 (E. coli K1 strain UTI89 [3]; [9]): 5.53 µM
